Reference: paper PMC8994094 (Molecular Diversity, 2022)
Where “and” joins values, the source holds several entries; their conditions need not be identical. Equal values may be shown once.

Experiments:
[1] = target: hCA I (Homo sapiens, UniProt P00915); experiment: hCA I esterase activity/kinetic assay; assay type: biochemical; settings: for hCA I Inhibition type: Lineweaver-Burk; for Selectivity index AAZ/hCA I: ratio of KI of acetazolamide to KI of compound; for Selectivity index hCA II/hCA I: ratio of KI values
Chain of hCA I (P00915 whole entry): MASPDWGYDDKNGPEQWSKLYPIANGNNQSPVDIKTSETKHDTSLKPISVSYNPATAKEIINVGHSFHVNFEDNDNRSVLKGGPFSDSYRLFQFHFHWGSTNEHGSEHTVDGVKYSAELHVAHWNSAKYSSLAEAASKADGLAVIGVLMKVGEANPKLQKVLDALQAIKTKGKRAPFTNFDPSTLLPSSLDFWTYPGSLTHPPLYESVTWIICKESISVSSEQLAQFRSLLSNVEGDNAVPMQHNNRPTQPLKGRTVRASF

[2] = target: AChE from Electrophorus electricus (Electrophorus electricus, UniProt O42275); experiment: AChE activity/kinetic assay; assay type: biochemical; settings: for AChE Inhibition type: Lineweaver-Burk; for Selectivity index THA/AChE: ratio of KI of tacrine to KI of compound
Chain of AChE from Electrophorus electricus (O42275 24-633): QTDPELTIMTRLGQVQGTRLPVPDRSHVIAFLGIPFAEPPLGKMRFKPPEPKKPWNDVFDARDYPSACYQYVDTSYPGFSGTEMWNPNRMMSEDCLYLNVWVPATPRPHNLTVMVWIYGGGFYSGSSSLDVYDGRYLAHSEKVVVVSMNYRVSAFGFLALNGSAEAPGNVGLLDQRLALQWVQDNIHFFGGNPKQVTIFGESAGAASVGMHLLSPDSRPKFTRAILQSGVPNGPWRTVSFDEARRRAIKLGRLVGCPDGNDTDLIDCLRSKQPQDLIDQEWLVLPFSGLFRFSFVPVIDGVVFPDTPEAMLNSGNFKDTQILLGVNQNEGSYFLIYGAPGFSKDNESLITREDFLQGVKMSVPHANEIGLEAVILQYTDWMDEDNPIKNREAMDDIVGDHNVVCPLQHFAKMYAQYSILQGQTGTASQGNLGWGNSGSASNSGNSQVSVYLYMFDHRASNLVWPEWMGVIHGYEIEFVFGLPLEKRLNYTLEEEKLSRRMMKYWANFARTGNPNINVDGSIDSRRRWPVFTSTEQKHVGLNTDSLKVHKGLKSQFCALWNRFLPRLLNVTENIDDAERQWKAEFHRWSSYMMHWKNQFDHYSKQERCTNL

[3] = target: hCA II (Homo sapiens, UniProt P00918); experiment: hCA II esterase activity/kinetic assay; assay type: biochemical; settings: for hCA II Inhibition type: Lineweaver-Burk; for Selectivity index AAZ/hCA II: ratio of KI of acetazolamide to KI of compound; for Selectivity index hCAI/hCA II: ratio of KI values
[4] = test system: cortex neuron cells and neuroblastoma SH-SY5Y cell line; experiment: MTT cytotoxicity test; assay type: cell-based; settings: for cell viability at low concentrations: at 10 and 100 μM; for toxicity at effective concentrations on target enzymes: effective concentrations on AChE and hCAs

Structure (SMILES): CCSc1nnc(-c2ccc(S(=O)(=O)NC(=O)c3ccccc3)cc2)o1 [6a, N-([4-(5-(ethylthio)-1,3,4-oxadiazol-2-yl)phenyl]sulfonyl)benzamide]
- Ki [1]: 0.0216 ± 0.00025 µM
- hCA I Inhibition type [1]: Competitive
- Selectivity index AAZ/hCA I [1]: 20.29
- Selectivity index hCA II/hCA I [1]: 0.43
- Ki [2]: 0.0525 ± 0.00127 µM
- AChE Inhibition type [2]: Competitive
- Selectivity index THA/AChE [2]: 2.96
- Ki [3]: 0.00933 ± 0.00013 µM
- hCA II Inhibition type [3]: Competitive
- Selectivity index AAZ/hCA II [3]: 10.5 and 10.53
- Selectivity index hCAI/hCA II [3]: 2.32
- cell viability at low concentrations [4]: high cell viability
- toxicity at effective concentrations on target enzymes [4]: non-toxic

Structure (SMILES): CCSc1nnc(-c2ccc(S(=O)(=O)NC(=O)c3ccc(C)cc3)cc2)o1 [6b, N-([4-(5-(ethylthio)-1,3,4-oxadiazol-2-yl)phenyl]sulfonyl)-4-methylbenzamide]
- Ki [1]: 0.05962 ± 0.00053 µM
- hCA I Inhibition type [1]: Noncompetitive
- Selectivity index AAZ/hCA I [1]: 7.37
- Selectivity index hCA II/hCA I [1]: 0.30
- Ki [2]: 0.047 ± 0.00171 µM
- AChE Inhibition type [2]: Competitive
- Selectivity index THA/AChE [2]: 3.30
- Ki [3]: 0.0178 ± 0.00023 µM
- hCA II Inhibition type [3]: Competitive
- Selectivity index AAZ/hCA II [3]: 5.51
- Selectivity index hCAI/hCA II [3]: 3.34

Structure (SMILES): CCCC(=O)NS(=O)(=O)c1ccc(-c2nnc(SCC)o2)cc1 [6d, N-([4-(5-(ethylthio)-1,3,4-oxadiazol-2-yl)phenyl]sulfonyl)butyramide]
- Ki [1]: 0.0187 ± 0.00021 µM
- hCA I Inhibition type [1]: Competitive
- Selectivity index AAZ/hCA I [1]: 23.5 and 23.54
- Selectivity index hCA II/hCA I [1]: 1.24
- Ki [2]: 0.0484 ± 0.00175 µM
- AChE Inhibition type [2]: Competitive
- Selectivity index THA/AChE [2]: 3.21
- Ki [3]: 0.0232 ± 0.00026 µM
- hCA II Inhibition type [3]: Competitive
- Selectivity index AAZ/hCA II [3]: 4.24
- Selectivity index hCAI/hCA II [3]: 0.81
- cell viability at low concentrations [4]: high cell viability
- toxicity at effective concentrations on target enzymes [4]: non-toxic

Structure (SMILES): CCCCC(=O)NS(=O)(=O)c1ccc(-c2nnc(SCC)o2)cc1 [6e, N-([4-(5-(ethylthio)-1,3,4-oxadiazol-2-yl)phenyl]sulfonyl)pentanamide]
- Ki [1]: 0.04715 ± 0.00036 µM
- hCA I Inhibition type [1]: Competitive
- Selectivity index AAZ/hCA I [1]: 9.31
- Selectivity index hCA II/hCA I [1]: 0.79
- Ki [2]: 0.0412 ± 0.00095 µM
- AChE Inhibition type [2]: Noncompetitive
- Selectivity index THA/AChE [2]: 3.77
- Ki [3]: 0.03724 ± 0.00014 µM
- hCA II Inhibition type [3]: Competitive
- Selectivity index AAZ/hCA II [3]: 2.64
- Selectivity index hCAI/hCA II [3]: 1.27

Structure (SMILES): CCCCCC(=O)NS(=O)(=O)c1ccc(-c2nnc(SCC)o2)cc1 [6f, N-([4-(5-(ethylthio)-1,3,4-oxadiazol-2-yl)phenyl]sulfonyl)hexanamide]
- Ki [1]: 0.0331 ± 0.00047 µM
- hCA I Inhibition type [1]: Competitive
- Selectivity index AAZ/hCA I [1]: 13.27
- Selectivity index hCA II/hCA I [1]: 0.88
- Ki [2]: 0.0393 ± 0.00113 µM
- AChE Inhibition type [2]: Competitive
- Selectivity index THA/AChE [2]: 3.95
- Ki [3]: 0.02919 ± 0.0001 µM
- hCA II Inhibition type [3]: Competitive
- Selectivity index AAZ/hCA II [3]: 3.37
- Selectivity index hCAI/hCA II [3]: 1.13

Structure (SMILES): CCCCCCC(=O)NS(=O)(=O)c1ccc(-c2nnc(SCC)o2)cc1 [6g, N-([4-(5-(ethylthio)-1,3,4-oxadiazol-2-yl)phenyl]sulfonyl)heptanamide]
- Ki [1]: 0.023 ± 0.00029 µM
- hCA I Inhibition type [1]: Competitive
- Selectivity index AAZ/hCA I [1]: 19.09
- Selectivity index hCA II/hCA I [1]: 1.33
- Ki [2]: 0.0497 ± 0.00213 µM
- AChE Inhibition type [2]: Competitive
- Selectivity index THA/AChE [2]: 3.12
- Ki [3]: 0.03071 ± 9e-05 µM
- hCA II Inhibition type [3]: Competitive
- Selectivity index AAZ/hCA II [3]: 3.20
- Selectivity index hCAI/hCA II [3]: 0.75

Structure (SMILES): CCCCCCCC(=O)NS(=O)(=O)c1ccc(-c2nnc(SCC)o2)cc1 [6h, N-([4-(5-(ethylthio)-1,3,4-oxadiazol-2-yl)phenyl]sulfonyl)octanamide]
- Ki [1]: 0.0346 ± 0.00051 µM
- hCA I Inhibition type [1]: Competitive
- Selectivity index AAZ/hCA I [1]: 12.69
- Selectivity index hCA II/hCA I [1]: 3.49
- Ki [2]: 0.0231 ± 0.00077 µM
- AChE Inhibition type [2]: Competitive
- Selectivity index THA/AChE [2]: 6.7 and 6.72
- Ki [3]: 0.1208 ± 0.00034 µM
- hCA II Inhibition type [3]: Noncompetitive
- Selectivity index AAZ/hCA II [3]: 0.81
- Selectivity index hCAI/hCA II [3]: 0.29
- cell viability at low concentrations [4]: high cell viability
- toxicity at effective concentrations on target enzymes [4]: non-toxic

Structure (SMILES): CCCCCCCCC(=O)NS(=O)(=O)c1ccc(-c2nnc(SCC)o2)cc1 [6i, N-([4-(5-(ethylthio)-1,3,4-oxadiazol-2-yl)phenyl]sulfonyl)nonanamide]
- Ki [1]: 0.0384 ± 0.00046 µM
- hCA I Inhibition type [1]: Competitive
- Selectivity index AAZ/hCA I [1]: 11.44
- Selectivity index hCA II/hCA I [1]: 2.93
- Ki [2]: 0.0476 ± 0.00175 µM
- AChE Inhibition type [2]: Competitive
- Selectivity index THA/AChE [2]: 3.27
- Ki [3]: 0.1127 ± 0.00036 µM
- hCA II Inhibition type [3]: Competitive
- Selectivity index AAZ/hCA II [3]: 0.87
- Selectivity index hCAI/hCA II [3]: 0.34

Structure (SMILES): CCCCCCCCCCCC(=O)NS(=O)(=O)c1ccc(-c2nnc(SCC)o2)cc1 [6j, N-([4-(5-(ethylthio)-1,3,4-oxadiazol-2-yl)phenyl]sulfonyl)dodecanamide]
- Ki [1]: 0.031 ± 0.00041 µM
- hCA I Inhibition type [1]: Competitive
- Selectivity index AAZ/hCA I [1]: 14.16
- Selectivity index hCA II/hCA I [1]: 0.95
- Ki [2]: 0.0467 ± 0.00164 µM
- AChE Inhibition type [2]: Competitive
- Selectivity index THA/AChE [2]: 3.33
- Ki [3]: 0.0294 ± 0.00013 µM
- hCA II Inhibition type [3]: Competitive
- Selectivity index AAZ/hCA II [3]: 3.34
- Selectivity index hCAI/hCA II [3]: 1.05
